Consider seven compounds from publication PMC7707621, “Oxidized Juncuenin B Analogues with Increased Antiproliferative Activity on Human Adherent Cell Lines: Semisynthesis and Biological Evaluation” (Journal of Natural Products, 2020).

Series [1] has as its system MCF-7 cells. The series is described as follows: MTT antiproliferative assay on MCF-7. Type of series: cell-based, human. The settings on record: for inhibition at 10 µM: MCF7, 10 μM; for inhibition at 10 µM / inhibition at 30 µM: read-out: Growth inhibition (% ± SEM), MCF-7; for inhibition at 30 µM: MCF7, 30 μM; for IC50: MTT, 0.1–30 μM, 72 h, mean ± SEM, read-out: calculated IC50 values, MCF-7. How it is done:
(§1) The antiproliferative assays of the products were carried out by a standard MTT method on human breast (MCF-7, T47D), cervical (HeLa, SiHa, C33A), and ovarian (A2780) cancer cells, and NIH/3T3 mouse embryonic fibroblast cell lines. In the first step, the diastereomeric and racemic mixtures 1–11 and the starting compound, juncuenin B, were tested to obtain information about their antiproliferative activity.
(§2) The antiproliferative activity and tumor selectivity of the compounds were measured by standard MTT assays. Tumor cell lines MCF-7, T47D, HeLa, A2780, and noncancerous NIH/3T3 were provided by European Collection of Authenticated Cell Cultures (ECACC, Salisbury, UK); cell lines SiHa and C33A by LGC Standards GmbH (Wesel, Germany). All chemicals and materials used for the antiproliferative assays were purchased from Sigma Aldrich Ltd. (Budapest, Hungary).
(§3) Growth-inhibition properties of racemates and pure enantiomer compounds were determined by standard MTT assays on six human malignant gynecological cell lines (MCF-7, T47D, HeLa, SiHa, C33A, A2780). To investigate tumor selectivity, the MTT assay was repeated on mouse embryonic fibroblast cells (NIH/3T3) under the same conditions. All cell lines were maintained in minimal essential medium (MEM) supplemented with 10% fetal bovine serum, 1% nonessential amino acids, and 1% penicillin–streptomycin–amphotericin B mixture, and were stored in humidified air containing 5% CO2 at 37 °C. All cell types were seeded into 96–well plates at a density of 5000 with the exception of C33a, which was seeded at a density of 10 000 and treated by increasing concentrations (0.1–30 μM) of the compounds for 72 h under cell culturing conditions. After the incubation, 5 mg/mL MTT [3-(4,5-dimethylthiazol-2-yl)-2,5-diphenyltetrazolium bromide] solution was added to samples for 4 h and precipitated blue formazan crystals were dissolved in DMSO. Absorbance values of the samples were measured at 545 nm using a microplate reader (Stat Fax-2100, Awareness Technologies Inc., Palm City, FL, USA) and untreated cells were used as control. Normalized sigmoidal dose–response curves were fitted to the determined data and the IC50 values were calculated by GraphPad Prism 5.01 (GraphPad Software, San Diego, CA, USA). Cisplatin (Ebewe Pharma GmbH, Unterach, Austria) was used as a reference agent in the same concentration range.

Series [2] deals with T47D cells. The series is described as follows: MTT antiproliferative assay on T47D. Type of series: cell-based, human. The settings on record: Homo sapiens, T47D; for inhibition at 10 µM / inhibition at 30 µM: read-out: Growth inhibition (% ± SEM), T47d; for IC50: MTT, 0.1–30 μM, 72 h, mean ± SEM, read-out: calculated IC50 values, T47D. How it is done: as §1, §2, §3
Series [3] deals with HeLa cells. The series is described as follows: MTT antiproliferative assay on HeLa. Type of series: cell-based, human. The settings on record: Homo sapiens, HeLa; for inhibition at 10 µM / inhibition at 30 µM: read-out: Growth inhibition (% ± SEM), HeLa; for IC50: MTT, 0.1–30 μM, 72 h, mean ± SEM, read-out: calculated IC50 values, HeLa. How it is done:
as §1, §2, §3

Series [4] relates to SiHa cells. The series is described as follows: MTT antiproliferative assay on SiHa. Type of series: cell-based, human. The note with it: for inhibition at 10 µM / inhibition at 30 µM: read-out: Growth inhibition (% ± SEM), SiHa; for IC50: MTT, 0.1–30 μM, 72 h, mean ± SEM, read-out: calculated IC50 values, SiHa. How it is done: as §1, §2, §3
Series [5] deals with C33A cells. Nature of the series: MTT antiproliferative assay on C33A. The note with it: for inhibition at 10 µM / inhibition at 30 µM: read-out: Growth inhibition (% ± SEM), C33a; for IC50: MTT, 0.1–30 μM, 72 h, mean ± SEM, read-out: calculated IC50 values, C33A. Type of series: cell-based, human. How it is done:
as §1, §2, §3

Series [6] relates to A2780 cells. The series is described as follows: MTT antiproliferative assay on A2780. Type of series: cell-based, human. The settings on record: Homo sapiens; for inhibition at 10 µM: A2780, 10 μM; for inhibition at 10 µM / inhibition at 30 µM: read-out: Growth inhibition (% ± SEM), A2780; for inhibition at 30 µM: A2780, 30 μM; for IC50: A2780, MTT, 0.1–30 μM, 72 h, mean ± SEM, read-out: calculated IC50 values, A2780. As to the method:
as §1, §2, §3

The test system of series [7] is NIH/3T3 mouse embryonic fibroblast cells. The series is described as follows: MTT assay for tumor selectivity on NIH/3T3. Type of series: cell-based. The settings on record: for inhibition at 10 µM / inhibition at 30 µM: read-out: Growth inhibition (% ± SEM), NIH; for IC50: MTT, 0.1–30 μM, 72 h, mean ± SEM, read-out: calculated IC50 values, NIH/3T3. How it is done:
as §1, §2, §3

The subject of series [8] is MCF-7, T47D, HeLa, SiHa, C33A, A2780 cells. The series is described as follows: MTT antiproliferative assay, panel of human gynecological cancer cell lines (result in words). Type of series: cell-based. As to the method:
as §1, §2, §3
(Tetrazolium assays rely on reduction of a dye to a coloured formazan, in cell work by metabolically active cells.)

The subject of series [9] is HeLa cells. The settings on record: cited from earlier work.
Series [10] relates to T47D cells. The settings on record: read-out: IC50 value from literature, T47D; cited from earlier work.
The test system of series [11] is A2780 cells. The settings on record: read-out: IC50 value from literature, A2780; cited from earlier work.

Entries after “also recorded” stand apart in the source; their conditions may differ. Read-outs that look alike come from different tables or passages of the source.

As usually defined, the inhibition is the drop in the measured response relative to a control, in per cent. Take `C=CC1=C(C)C(=O)C=C2c3ccc(O)c(C)c3CC[C@]21OC` [Compound 4b]: the inhibition at 10 µM is 24.4 ± 1.43% in [1] (Homo sapiens); 16.5 ± 1.68% in series [2]; 19 ± 2.11% in series [3]; less than 10% in series [4] (Homo sapiens, SiHa); less than 10% in series [5] (Homo sapiens, C-33-A); less than 10% in series [6]. The inhibition at 10 µM in [7] (Mus musculus, NIH3T3) is less than 10%. Besides, the inhibition at 30 µM in [1] (Homo sapiens) was 42 ± 1.94%; in [2], 28.1 ± 1.79%; in series [3], 37.2 ± 0.72%; in series [4] (Homo sapiens, SiHa) it was less than 10%; in series [5] (Homo sapiens, C-33-A), 35.4 ± 0.8%; in [6], 13.7 ± 2.81%. In addition, the inhibition at 30 µM in [7] (Mus musculus, NIH3T3) is less than 10%. Also, the IC50 in series [1] (Homo sapiens, MCF7) was more than 30 µM; in series [2] it was more than 30 µM; in series [3], more than 30 µM; in series [4] (Homo sapiens, SiHa), more than 30 µM; in series [5] (Homo sapiens, C-33-A) it was more than 30 µM; in series [6], more than 30 µM. Further, in series [7] (Mus musculus, NIH3T3), the IC50 was more than 30 µM. The “antiproliferative activity (in words)” value in series [8] is “no relevant influence on the cell proliferation”.

`C=Cc1c(C)c(O)cc2c1-c1ccc(O)c(C)c1CC2` [Juncusol]: the “cytotoxicity on HeLa cells (in words)” value in series [9] is “cytotoxic”.

In the case of `C=Cc1c(C)c(O)cc2c1CCc1c-2ccc(O)c1C` [juncuenin B, 1,7-dimethyl-8-vinyl-9,10-dihydrophenanthrene-2,6-diol], the inhibition at 10 µM in [1] (Homo sapiens) is 22.5 ± 2.02%; in series [2] it was less than 10%; in [3], 88.8 ± 1.15%; in [4] (Homo sapiens, SiHa) it was 22.7 ± 2.89%; in series [5] (Homo sapiens, C-33-A) it was 27.5 ± 2.45%; in series [6] it was 61.2 ± 1.46%. The inhibition at 30 µM was found to be 64.9 ± 2.1% in [1] (Homo sapiens); 54.2 ± 2.66% in series [2]; 93.58 ± 0.41% in series [3]; 33.1 ± 1.76% in [4] (Homo sapiens, SiHa); 79.33 ± 0.7% in series [5] (Homo sapiens, C-33-A); 85.91 ± 0.62% in series [6]. Also, the “fold stronger activity on MCF-7 than on T47D cells” value in series [1] (MCF-7 versus T47D) was “approximately 2.5 fold”. In addition, the IC50 in [4] (Homo sapiens, SiHa) is more than 30 µM; in [5] (Homo sapiens, C-33-A), 12.7 ± 1.7 µM; in [10] it was more than 30 µM.

For `C=CC1=C(C)C(=O)C=C2C3(OCC)C=CC(=O)C(C)=C3CCC21OCC` (stereo not shown) [Compound 5], the inhibition at 10 µM in series [1] (Homo sapiens) was less than 10%; in series [2] it was less than 10%; in [3] it was less than 10%; in series [4] (Homo sapiens, SiHa), less than 10%; in series [5] (Homo sapiens, C-33-A), less than 10%; in series [6], less than 10%. Besides, the inhibition at 30 µM is less than 10% in series [1] (Homo sapiens); 14.1 ± 2.78% in series [2]; 14.4 ± 1.51% in series [3]; less than 10% in [4] (Homo sapiens, SiHa); 10.3 ± 1.51% in [5] (Homo sapiens, C-33-A); less than 10% in [6]. Also, the “antiproliferative activity (in words)” value in series [8] was “did not exert antiproliferative activity; also recorded: No significant activities”.

Consider `N.N.[Cl][Pt][Cl]` [cisplatin, reference compound], for which the IC50 in series [1] was 5.8 µM; in [4], 7.8 µM; in series [5], 1.8 µM; in series [7], 2.7 µM; in series [10] it was 9.8 µM; in series [11], 1.3 µM.

Take `C=CC1=C(C)C(=O)C=C2c3ccc(O)c(C)c3CC[C@]21OCC` [Compound 7b, 8a-ethoxy-1,7-dimethyl-6-oxo-8-vinyl-9,10-dihydrophenanthrene-2-ols]: the inhibition at 10 µM in series [1] (Homo sapiens) is less than 10%; in series [2] it was less than 10%; in series [3], 15 ± 2.72%; in series [4] (Homo sapiens, SiHa), less than 10%; in series [5] (Homo sapiens, C-33-A), less than 10%; in series [6], less than 10%. In addition, in series [7] (Mus musculus, NIH3T3), the inhibition at 10 µM is less than 10%. In addition, the inhibition at 30 µM in series [1] (Homo sapiens) is less than 10%; in series [2], 13.5 ± 2.41%; in series [3] it was 31.7 ± 2.37%; in [4] (Homo sapiens, SiHa), less than 10%; in [5] (Homo sapiens, C-33-A) it was 26 ± 3%; in series [6], 20.6 ± 2.43%. For the same compound, the inhibition at 30 µM in [7] (Mus musculus, NIH3T3) turned out to be 10.5 ± 1%. Besides, the IC50 in series [1] (Homo sapiens, MCF7) is more than 30 µM; in series [2], more than 30 µM; in series [3] it was more than 30 µM; in series [4] (Homo sapiens, SiHa) it was more than 30 µM; in [5] (Homo sapiens, C-33-A), more than 30 µM; in [6], more than 30 µM. The IC50 in series [7] (Mus musculus, NIH3T3) is more than 30 µM. In addition, in [8], the “antiproliferative activity (in words)” value is given as “no activity; also recorded: no relevant influence on the cell proliferation”.

`C=CC1=C(C)C(=O)C=C2c3ccc(O)c(C)c3CCC21OCCCC` (stereo not shown) [Compound 11]: the inhibition at 10 µM in [1] (Homo sapiens) is 27.7 ± 1.3%; in [2] it was 11.6 ± 1.4%; in [3] it was less than 10%; in series [4] (Homo sapiens, SiHa), less than 10%; in series [5] (Homo sapiens, C-33-A) it was 20.1 ± 2.24%; in [6], 28.3 ± 2.31%. Besides, the inhibition at 30 µM in [1] (Homo sapiens) was 82.46 ± 0.33%; in [2] it was 52.9 ± 0.59%; in series [3] it was 42.6 ± 1.18%; in series [4] (Homo sapiens, SiHa) it was less than 10%; in [5] (Homo sapiens, C-33-A), 65.5 ± 1.26%; in [6] it was 77.82 ± 0.69%. The IC50 in [1] (Homo sapiens, MCF7) is 18.2 ± 0.2 µM; in series [2] it was 30 ± 0.5 µM; in series [3], more than 30 µM; in series [4] (Homo sapiens, SiHa) it was more than 30 µM; in series [5] (Homo sapiens, C-33-A), 19.9 ± 1.3 µM; in series [6], 16.5 ± 2 µM. For the same compound, the IC50 in [7] (Mus musculus, NIH3T3) was more than 30 µM. In series [8], the “antiproliferative activity (in words)” value is listed as “No significant activities”.
